Assay results published in the NIST ThermoML archive (doi:10.1016/j.jct.2005.08.013).
Several values for one entry are separate records, joined by “and”; a condition that tells them apart may be missing. Equal values may be shown once.

Conditions: Calculated from knudsen effusion weight loss

c1ccc(-c2cc(-c3ccccc3)cc(-c3ccccc3)c2)cc1 [1,3,5-triphenylbenzene]
Crystal
Conditions	vapor or sublimation pressure
407.36 K	0.00014 kPa and 0.000141 kPa and 0.000139 kPa
409.3 K	0.000173 kPa and 0.000166 kPa and 0.000164 kPa
411.3 K	0.000215 kPa and 0.00021 kPa and 0.000206 kPa
413.23 K	0.000251 kPa and 0.000256 kPa
415.35 K	0.000317 kPa and 0.000316 kPa
416.86 K	0.000361 kPa and 0.000348 kPa
417.22 K	0.00037 kPa and 0.000371 kPa
419.24 K	0.000454 kPa and 0.00047 kPa
421.36 K	0.000542 kPa and 0.000563 kPa and 0.000568 kPa
423.29 K	0.000672 kPa and 0.000668 kPa and 0.000649 kPa
425.26 K	0.000796 kPa and 0.000784 kPa
427.36 K	0.000966 kPa and 0.000984 kPa and 0.001 kPa
429.29 K	0.00117 kPa and 0.0012 kPa

c1ccc2c(c1)ccc1ccccc12 [phenanthrene]
Crystal 2
Conditions	vapor or sublimation pressure
313.46 K	0.000123 kPa and 0.000124 kPa
315.48 K	0.000151 kPa and 0.000155 kPa and 0.000156 kPa
317.41 K	0.000185 kPa and 0.000191 kPa and 0.000193 kPa
319.47 K	0.000238 kPa and 0.000239 kPa and 0.000235 kPa
321.48 K	0.000292 kPa and 0.000293 kPa and 0.000296 kPa
323.16 K	0.000343 kPa and 0.000352 kPa
325.46 K	0.000436 kPa and 0.000446 kPa and 0.000453 kPa
327.47 K	0.000543 kPa and 0.000544 kPa and 0.00055 kPa
329.47 K	0.00067 kPa and 0.000675 kPa and 0.000678 kPa
331.42 K	0.000814 kPa and 0.000825 kPa and 0.000834 kPa
333.16 K	0.001 kPa and 0.00101 kPa

O=C(O)c1ccccc1 [benzoic acid]
Crystal
Conditions	vapor or sublimation pressure
299.33 K	0.000134 kPa and 0.000131 kPa
301.04 K	0.000162 kPa and 0.00016 kPa and 0.000155 kPa
303.16 K	0.000203 kPa and 0.000201 kPa and 0.00021 kPa
305.24 K	0.000271 kPa and 0.000265 kPa and 0.000261 kPa
307.13 K	0.000332 kPa and 0.000326 kPa and 0.000323 kPa
309.25 K	0.000414 kPa and 0.000408 kPa and 0.00042 kPa
311.3 K	0.000525 kPa and 0.000512 kPa and 0.000524 kPa
313.2 K	0.000643 kPa and 0.000622 kPa and 0.000647 kPa
315.27 K	0.000815 kPa and 0.000799 kPa and 0.00083 kPa
317.32 K	0.00105 kPa and 0.00102 kPa and 0.00101 kPa

c1ccc2cc3ccccc3cc2c1 [anthracene]
Crystal
Conditions	vapor or sublimation pressure
340.41 K	0.000143 kPa and 0.000144 kPa and 0.000141 kPa
342.25 K	0.000172 kPa and 0.000173 kPa and 0.000167 kPa
344.06 K	0.000211 kPa and 0.000206 kPa
346.4 K	0.000258 kPa and 0.000262 kPa and 0.000263 kPa
348.15 K	0.000306 kPa and 0.000304 kPa and 0.000308 kPa
350.15 K	0.000375 kPa and 0.000371 kPa and 0.000376 kPa
352.39 K	0.000464 kPa and 0.000459 kPa and 0.000458 kPa
354.06 K	0.00055 kPa and 0.000548 kPa and 0.000554 kPa
356.2 K	0.000673 kPa and 0.000679 kPa and 0.000658 kPa
358.22 K	0.000815 kPa and 0.000821 kPa and 0.00081 kPa
360.38 K	0.00101 kPa and 0.00098 kPa

O=C1c2ccccc2-c2cccc3cccc1c23 [7H-benz[de]anthracen-7-one]
Crystal
Conditions	vapor or sublimation pressure
390.31 K	0.000152 kPa and 0.000149 kPa
392.23 K	0.000179 kPa and 0.000177 kPa
394.57 K	0.000234 kPa and 0.000221 kPa
396.35 K	0.000263 kPa and 0.000262 kPa and 0.00026 kPa
398.22 K	0.000323 kPa and 0.000325 kPa
400.41 K	0.000394 kPa and 0.000381 kPa
402.19 K	0.000471 kPa and 0.000453 kPa
404.34 K	0.00057 kPa and 0.000564 kPa and 0.000565 kPa
406.35 K	0.000686 kPa and 0.000679 kPa and 0.00068 kPa
408.35 K	0.00081 kPa and 0.000796 kPa and 0.0008 kPa
410.23 K	0.000962 kPa and 0.000954 kPa and 0.000926 kPa
